Counter-ions that a name gives are not always drawn.

This assay concerns the target T1, PDE4B (human recombinant) (Homo sapiens, UniProt Q07343).
T1 construct: made in house
The assay is described as follows: Inhibition of PDE4B activity: SPA and/or Fluorescence Polarisation (FP) assay. Type of assay: biochemical. The settings on record: one reading (n=1) or average of 2 or more readings, read-out: PDE4B pIC50 (±about 0.5) (converted). On the procedure:
The ability of compounds to inhibit catalytic activity at PDE4B or 4D (human recombinant), PDE3 (from bovine aorta), PDE5 (human recombinant) or PDE6 (from bovine retina) can optionally be determined by Scintillation Proximity Assay (SPA) in a 96-well format.
The enzyme concentration is adjusted so that no more than 20% hydrolysis of the substrate defined below occurs in control wells without compound, during the incubation. For the PDE3, PDE4B and PDE4D assays, [5′,8-3H]Adenosine 3′,5′-cyclic phosphate (Amersham Pharmacia Biotech, code TRK.559; or Amersham Biosciences UK Ltd, Pollards Wood, Chalfont St Giles, Buckinghamshire HP8 4SP, UK) is added to give 0.05 uCi per well and about 10 nM final concentration. […] Plates containing assay mixture, suitably approx. 100 ul volume of assay mixture, are mixed on an orbital shaker for 5 minutes and incubated at ambient temperature for 1 hour. Phosphodiesterase SPA beads (Amersham Pharmacia Biotech, code RPNQ 0150) are added (about 1 mg per well) to terminate the assay. Plates are sealed and shaken and allowed to stand at ambient temperature for 35 minutes to 1 hour (suitably 35 minutes) to allow the beads to settle. […] Curves are analysed using ActivityBase and XLfit (ID Business Solutions Limited, 2 Ocean Court, Surrey Research Park, Guildford, Surrey GU2 7QB, United Kingdom). Results are expressed as pIC50 values.
The ability of compounds to inhibit catalytic activity at PDE4B (human recombinant) or PDE4D (human recombinant) can optionally be determined by IMAP Fluorescence Polarisation (FP) assay (IMAP Explorer kit, available from Molecular Devices Corporation, Sunnydale, Calif., USA; Molecular Devices code: R8062) in 384-well format.
The IMAP FP assay is able to measure PDE activity in an homogenous, non-radioactive assay format. The FP assay uses the ability of immobilised trivalent metal cations, coated onto nanoparticles (tiny beads), to bind the phosphate group of Fl-AMP that is produced on the hydrolysis of fluorescein-labelled (Fl) cyclic adenosine mono-phosphate (Fl-cAMP) to the non-cyclic Fl-AMP form. […] Binding of Fl-AMP product to the beads (coated with the immobilised trivalent cations) slows the rotation of the bound Fl-AMP and leads to an increase in the fluorescence polarisation ratio of parallel to perpendicular light. Inhibition of the PDE reduces/inhibits this signal increase.
The enzyme level is set by experimentation so that reaction is linear throughout the incubation. Fluorescein adenosine 3′,5′-cyclic phosphate (from Molecular Devices Corporation, Molecular Devices code: R7091) is added to give about 40 nM final concentration (final assay volume usually ca. 20-40 ul, suitably ca. 20 ul). Plates are mixed on an orbital shaker for 10 seconds and incubated at ambient temperature for 40 minutes. IMAP binding reagent (as described above, from Molecular Devices Corporation, Molecular Devices code: R7207) is added (60 ul of a 1 in 400 dilution in binding buffer of the kit stock solution) to terminate the assay. Plates are allowed to stand at ambient temperature for 1 hour. The Fluorescence Polarisation (FP) ratio of parallel to perpendicular light is measured using an Analyst™ plate reader (from Molecular Devices Corporation). […] Curves are analysed using ActivityBase and XLfit (ID Business Solutions Limited, 2 Ocean Court, Surrey Research Park, Guildford, Surrey GU2 7QB, United Kingdom). Results are expressed as plC50 values.
In general terms: In fluorescence polarisation assays a small probe gives low polarisation when free and higher when bound to something large.

T1 sequence (Q07343 1-564 isoform Q07343-2): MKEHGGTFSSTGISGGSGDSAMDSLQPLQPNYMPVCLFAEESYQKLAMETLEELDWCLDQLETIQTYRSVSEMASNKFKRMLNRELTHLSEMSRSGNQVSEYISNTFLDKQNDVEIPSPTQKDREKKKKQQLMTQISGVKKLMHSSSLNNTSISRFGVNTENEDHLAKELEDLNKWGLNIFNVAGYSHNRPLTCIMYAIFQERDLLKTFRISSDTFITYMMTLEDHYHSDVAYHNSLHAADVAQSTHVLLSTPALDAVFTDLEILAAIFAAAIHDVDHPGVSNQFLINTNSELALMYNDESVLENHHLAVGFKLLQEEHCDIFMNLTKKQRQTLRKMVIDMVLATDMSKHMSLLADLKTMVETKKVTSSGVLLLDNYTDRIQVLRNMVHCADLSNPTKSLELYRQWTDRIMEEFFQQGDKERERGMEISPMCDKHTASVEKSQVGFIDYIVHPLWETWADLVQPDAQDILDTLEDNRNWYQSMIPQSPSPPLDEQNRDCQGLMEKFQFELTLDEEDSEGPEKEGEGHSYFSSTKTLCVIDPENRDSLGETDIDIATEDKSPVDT

Take `CCn1ncc2c(NC3CCN(C(N)=O)CC3)c(CNC(=O)c3ccc(C(C)C)cc3)c(C)nc21` [Example 263, 4-({1-ethyl-6-methyl-5-[({[4-(1-methylethyl)phenyl]carbonyl}amino)methyl]-1H-pyrazolo[3,4-b]pyridin-4-yl}amino)-1-piperidinecarboxamide]: the IC50 is 0.01 to 0.1 nM.
With `CCn1ncc2c(NC3CCOCC3)c(CN3Cc4ccc(F)cc4C3=O)c(C)nc21` [Example 314, 2-{[1-ethyl-6-methyl-4-(tetrahydro-2H-pyran-4-ylamino)-1H-pyrazolo[3,4-b]pyridin-5-yl]methyl}-6-fluoro-2,3-dihydro-1H-isoindol-1-one], the IC50 is 0.126 to 1 nM.
In the case of `CCn1ncc2c(NC3CCN(C(N)=O)CC3)c(CNC(=O)c3ccc(C)c4c3OCC4)c(C)nc21` [Example 274, 4-{[1-ethyl-6-methyl-5-({[(4-methyl-2,3-dihydro-1-benzofuran-7-yl)carbonyl]amino}methyl)-1H-pyrazolo[3,4-b]pyridin-4-yl]amino}-1-piperidinecarboxamide], the IC50 was 0.01 to 0.1 nM.
The result for `CCn1ncc2c(NC3CCOCC3)c(CNC(=O)c3ccc(C(C)(C)C)cc3)c(C)nc21` [Example 277, 4-(1,1-dimethylethyl)-N-{[1-ethyl-6-methyl-4-(tetrahydro-2H-pyran-4-ylamino)-1H-pyrazolo[3,4-b]pyridin-5-yl]methyl}benzamide] reads 0.01 to 0.1 nM; that for `CCn1ncc2c(NC3CCOCC3)c(CNS(=O)(=O)c3cccs3)c(C)nc21` [Example 108, N-{[1-ethyl-6-methyl-4-(tetrahydro-2H-pyran-4-ylamino)-1H-pyrazolo[3,4-b]pyridin-5-yl]methyl}-2-thiophenesulfonamide], 0.126 to 1 nM.
For `CCc1nc2c(cnn2CC)c(NC2CCOCC2)c1CNC(=O)c1ccc(C)cc1O` [Example 254, N-{[1,6-diethyl-4-(tetrahydro-2H-pyran-4-ylamino)-1H-pyrazolo[3,4-b]pyridin-5-yl]methyl}-2-hydroxy-4-methylbenzamide] the value was 0.01 to 0.1 nM.
Turning to `CCn1ncc2c(NC3CCOCC3)c(CNC(=O)c3cccc(N(C)C)c3)cnc21` [Example 120, 3-(dimethylamino)-N-{[1-ethyl-4-(tetrahydro-2H-pyran-4-ylamino)-1H-pyrazolo[3,4-b]pyridin-5-yl]methyl}benzamide], the IC50 was 0.126 to 1 nM.
Regarding `CCc1nc2c(cnn2CC)c(NC2CCOCC2)c1CNC(=O)c1ccnnc1` [Example 150, N-{[1,6-diethyl-4-(tetrahydro-2H-pyran-4-ylamino)-1H-pyrazolo[3,4-b]pyridin-5-yl]methyl}-4-pyridazinecarboxamide], the IC50 was 0.126 to 1 nM.
For `CCc1nc2c(cnn2CC)c(NC2CCOCC2)c1CNC(=O)c1cc(C(=O)N(C)c2ccccc2)ccc1OC` [Example 182, N˜3˜-{[1,6-diethyl-4-(tetrahydro-2H-pyran-4-ylamino)-1H-pyrazolo[3,4-b]pyridin-5-yl]methyl}-N˜1˜-methyl-4-(methyloxy)-N-˜1˜-phenyl-1,3-benzenedicarboxamide] the value was 0.01 to 0.1 nM; for `CCn1ncc2c(NC3CCOCC3)c(CNC(=O)c3ccc(-n4cccc4)nc3)c(C)nc21` [Example 214, N-{[1-ethyl-6-methyl-4-(tetrahydro-2H-pyran-4-ylamino)-1H-pyrazolo[3,4-b]pyridin-5-yl]methyl}-6-(1H-pyrrol-1-yl)-3-pyridinecarboxamide], 0.126 to 1 nM.
For `CCc1nc2c(cnn2CC)c(NC2CCOCC2)c1CNC(=O)c1ccc(NC(C)=O)cc1OC` [Example 157, 4-(acetylamino)-N-{[1,6-diethyl-4-(tetrahydro-2H-pyran-4-ylamino)-1H-pyrazolo[3,4-b]pyridin-5-yl]methyl}-2-(methyloxy)benzamide] the value was 0.01 to 0.1 nM; for `CCc1nc2c(cnn2CC)c(NC2CCOCC2)c1CNC(=O)c1ccc2c(=O)[nH][nH]c2c1` [Example 257, N-{[1,6-diethyl-4-(tetrahydro-2H-pyran-4-ylamino)-1H-pyrazolo[3,4-b]pyridin-5-yl]methyl}-3-oxo-2,3-dihydro-1H-indazole-6-carboxamide], 0.01 to 0.1 nM.
Consider `CCc1nc2c(cnn2CC)c(NC2CCOCC2)c1CNC(=O)c1cccc(N2CCOCC2)c1` [Example 190, N-{[1,6-diethyl-4-(tetrahydro-2H-pyran-4-ylamino)-1H-pyrazolo[3,4-b]pyridin-5-yl]methyl}-3-(4-morpholinyl)benzamide], for which the IC50 was 0.01 to 0.1 nM.
Turning to `CCc1nc2c(cnn2CC)c(NC2CCN(C(N)=O)CC2)c1CNC(=O)c1ccc2c(=O)[nH][nH]c2c1` [Example 248, N-[(4-{[1-(aminocarbonyl)-4-piperidinyl]amino}-1,6-diethyl-1H-pyrazolo[3,4-b]pyridin-5-yl)methyl]-3-oxo-2,3-dihydro-1H-indazole-6-carboxamide], the IC50 is 0.01 to 0.1 nM.
On to `CCc1nc2c(cnn2CC)c(NC2CCOCC2)c1CNC(=O)c1oc(C)nc1C` [Example 335, N-{[1,6-diethyl-4-(tetrahydro-2H-pyran-4-ylamino)-1H-pyrazolo[3,4-b]pyridin-5-yl]methyl}-2,4-dimethyl-1,3-oxazole-5-carboxamide formate], for which the IC50 is 0.126 to 1 nM.
For `CCn1ncc2c(NC3CCOCC3)c(CNC(=O)c3ccc(F)cc3F)c(C)nc21` [Example 312, N-{[1-ethyl-6-methyl-4-(tetrahydro-2H-pyran-4-ylamino)-1H-pyrazolo[3,4-b]pyridin-5-yl]methyl}-2,4-difluorobenzamide] the value was 0.126 to 1 nM; for `CCc1nc2c(cnn2CC)c(NC2CCOCC2)c1CNC(=O)c1ccc2c(c1)CCCC2` [Example 177, N-{[1,6-diethyl-4-(tetrahydro-2H-pyran-4-ylamino)-1H-pyrazolo[3,4-b]pyridin-5-yl]methyl}-5,6,7,8-tetrahydro-2-naphthalenecarboxamide], 0.126 to 1 nM; for `CCc1nc2c(cnn2CC)c(NC2CCN(C(N)=O)CC2)c1CNC(=O)c1ccc(N2CCCCC2)cc1` [Example 204, 4-({1,6-diethyl-5-[({[4-(1-piperidinyl)phenyl]carbonyl}amino)methyl]-1H-pyrazolo[3,4-b]pyridin-4-yl}amino)-1-piperidinecarboxamide], 0.01 to 0.1 nM.
`CCc1nc2c(cnn2CC)c(NC2CCOCC2)c1CNC(=O)c1cccc2ccccc12` [Example 192, N-{[1,6-diethyl-4-(tetrahydro-2H-pyran-4-ylamino)-1H-pyrazolo[3,4-b]pyridin-5-yl]methyl}-1-naphthalenecarboxamide]: the IC50 was 0.126 to 1 nM.
For `CCc1nc2c(cnn2CC)c(NC2CCN(C(N)=O)CC2)c1CNC(=O)c1ccc2c(c1)CCC2` [Example 206, 4-[(5-{[(2,3-dihydro-1H-inden-5-ylcarbonyl)amino]methyl}-1,6-diethyl-1H-pyrazolo[3,4-b]pyridin-4-yl)amino]-1-piperidinecarboxamide] the value was 0.126 to 1 nM.
For `CCc1nc2c(cnn2CC)c(NC2CCOCC2)c1CNC(=O)NCCc1ccccc1` [Example 202, N-{[1,6-diethyl-4-(tetrahydro-2H-pyran-4-ylamino)-1H-pyrazolo[3,4-b]pyridin-5-yl]methyl}-N′-(2-phenylethyl)urea] the value was 0.126 to 1 nM; for `CCn1ncc2c(NC3CCOCC3)c(CNC(=O)c3ccc(N4CCCCC4)cc3)c(C)nc21` [Example 116, N-{[1-ethyl-6-methyl-4-(tetrahydro-2H-pyran-4-ylamino)-1H-pyrazolo[3,4-b]pyridin-5-yl]methyl}-4-(1-piperidinyl)benzamide], 0.01 to 0.1 nM.
